Values of other authors as cited in PMC12326358, “Effect of Quantitative Structural Properties and Drug Formulation in Four Cannabinoids (Cannabidiol, Cannabigerol, Cannabichromene, and Cannabinol) on Their Lymphatic Transport after Enteral Administration in Rats” (Molecular Pharmaceutics, 2025).

Assays:
[1] = Beagle dogs, formulation with drug dispersed in small lipid droplets; cited from earlier work
[2] = cited from earlier work
[3] = cited from earlier work; for log P: ref literature

## CC(C)(C)c1cc(C(C)(C)C)c(NC(=O)c2c[nH]c3ccccc3c2=O)cc1O [ivacaftor, reference compound]
[1]
  bioavailability increase: 7 fold

## COc1nc(C(Cl)(Cl)Cl)c(Cl)c(OC)c1Cl [penclomedine]
[2]
  partitioning into lymph: very limited partitioning into lymph
[3]
  solubility in long-chain triglycerides: > 50 mg/g
  log P: > 5

## CCCCCCCCCCC(=O)O[C@H]1CC[C@H]2[C@@H]3CCC4=CC(=O)CC[C@]4(C)[C@H]3CC[C@]12C [testosterone undecanoate]
[2]; drug with prominent first-pass metabolism in the liver, ref literature
  FRL: 98.5%
[3]
  log P: 6.7
